In patent US8507219B2, “Method of treating inflammation with statins” (MUSC Foundation for Research Development, priority 1997, dated 2013):
Where two headings read alike, the source gives them in different places.

Tests used:
[1] = system: control human skin fibroblasts; assay: β-oxidation of lignoceric acid in control human skin fibroblasts; assay type: cell-based
NF-kβ = assay type: cell-based, rat
Protocol: Preparation of Nuclear Extracts and Electrophoretic Mobility shift assay Nuclear extracts from stimulated or unstimulated astrocytes (1×10^7 cells) were prepared using the method of Dignam et al. (1983) with slight modification. Cells were harvested, washed twice with ice-cold phosphate-buffered saline and lysed in 400 μl of buffer A (10 mM HEPES, pH 7.9, 10 mM KCl, 2 mM MgCl2, 0.5 mM DTT, 1 mM PMSF, 5 μg/ml aprotinin, 5 μg/ml pepstatin A, and 5 μg/ml leupeptin (Sigma, St. Louis, Mo.) containing 0.1% Nondet P-40 for 15 min on ice, vortexed vigorously for 15 s, and centrifuged at 14,000 rpm for 30 s. The pelleted nuclei were resuspended in 40 μl of buffer B (20 mM HEPES, pH 7.9, 25% (v/v) glycerol, 0.42 M NaCl, 1.5 mM MgCl2, 0.2 mM EDTA, 0.5 mM DTT, 1 mM PMSF, 5 μg/ml aprotinin, 5 μg/ml pepstatin A, and 5 μg/ml leupeptin). After 30 min on ice, lysates were centrifuged at 14,000 rpm for 10 min. Supernatants containing the nuclear proteins were diluted with 20 μl of modified buffer C (20 mM HEPES, pH 7.9, 20% (v/v) glycerol, 0.05 M KCl, 0.2 mM EDTA, 0.5 mM DTT, and 0.5 mM PMSF) and stored at −70° C. until use. Nuclear extracts were used for the electrophoretic mobility shift assay using the NF-kβ DNA binding protein detection system kit (GIBCO/BRL), according to the manufacturer's protocol.
Preparation of nuclear extracts and electrophoretic mobility shift assay Nuclear extracts from stimulated or unstimulated astrocytes (1×10^7 cells) were prepared as described (Dignam et al., 1983) with slight modification. Cells were harvested, washed twice with ice-cold phosphate-buffered saline and lysed in 400 μl of buffer A (10 mM HEPES, pH 7.9, 10 mM KCl, 2 mM MgCl2, 0.5 mM DTT, 1 mM PMSF, 5 μg/ml aprotinin, 5 μg/ml pepstatin A, and 5 μg/ml leupeptin) containing 0.1% Nonidet P40 for 15 min on ice, vortexed vigorously for 15 s, and centrifuged at 14,000 rpm for 30 s. […]

[2] = system: NO production in rat primary microglia; assay: LPS-induced NO production (nitrite) in rat primary microglia; assay type: cell-based
[3] = system: TNF-α production in rat resident macrophages; assay: LPS-/IFN-γ-induced TNF-α production (ELISA) in rat macrophages; assay type: cell-based
IFN-γ = assay: Immunohistochemistry of IFN-γ in brain sections of EAE rats; assay type: in vivo, Lewis rats
Protocol: One group of animals induced for EAE was left untreated while another group of animals was not induced for EAE and used as the control group.
Immunohistochemistry Brains were fixed in 10% buffered formalin (Stephens Scientific, Riverdale, N.J.). The tissues were embedded in paraffin and sectioned at 4 μm. Sections were then stained for various cytokines and cell markers as described below. For single-label immunohistochemistry, sections were incubated with either anti-iNOS antibody (1:100, rabbit polyclonal, Calbiochem, LaJolla, Calif.) or anti-TNF-α antibody (1:100, rabbit polyclonal, Genzyme, Cambridge, Mass.) or anti-IFN-γ antibody (1:200, rabbit polyclonal, Biosource International, Camarillo, Calif.) essentially as described for other antibodies (Hooper et al., 1997). The tissue sections were further incubated with FITC conjugated anti-rabbit IgG (1:100, Sigma, St. Louis, Mo.), mounted with mounting media (EMS) and analyzed by immunofluorescence microscopy (Olympus) using Adobe photoshop software. For immunofluorescent double-labeling, sections were incubated first with anti-iNOS (1:100) followed by macrophage marker ED1 (1:100, mouse monoclonal, Biosource International, Camarillo, Calif.). Anti-iNOS was visualized using TRITC conjugated anti-rabbit IgG—(1:100, Sigma, St. Louis, Mo.) and ED1 using FITC conjugated anti-mouse IgG (1:100, Sigma, St. Louis, Mo.). […]

[4] = system: NO production in rat C6 glial cells; assay: LPS-/cytokine-induced NO production (nitrite) in C6 glial cells; assay type: cell-based; settings: for Nitrite / inhibition at 20000 µM: C6 glial cells, NAC 20 mM 2 h prior; for Nitrite: 24 h; for inhibition at 20000 µM: Rattus norvegicus, Glial cell

O=C([O-])Cc1ccccc1.[Na+] [NaPA, sodium salt of phenylacetic acid]
Lignoceric acid β-oxidation [1]: 826.2 ± 87.2 pmol/h/mg protein
LPS-induced activation of NF-kβ (NF-kβ): markedly inhibited for the LPS-induced activation of NF-kβ
Production of NO [2]: 6.9 ± 0.9 nmol/24 h/mg protein
Production of TNF-α [3]: 1.7 ± 0.2 ng/24 h/mg protein
expression of IFN-γ in EAE brain (IFN-γ; rat, in vivo, ip): blocked the induction of IFN-γ

CC[C@H](C)C(=O)O[C@H]1C[C@@H](C)C=C2C=C[C@H](C)[C@H](CC[C@@H]3C[C@@H](O)CC(=O)O3)[C@H]21 [Lovastatin]
Lignoceric acid β-oxidation ([1]; 72 h, Lovastatin 5 μM, Mevastatin 5 μM, NaPA 5 mM, Control 570.2 ± 52.3): 945.7 ± 105.6 pmol/h/mg protein
LPS- and cytokine-induced NO production [4]: inhibit LPS- and cytokine-induced NO production in rat C6 glial cells
LPS-induced activation of NF-kβ (NF-kβ; LPS 1.0 μg/ml, 1 h): markedly inhibited for the LPS-induced activation of NF-kβ
Production of NO ([2]; Microglia, 10 μM lovastatin or 5 mM NaPA 8 h, then LPS 1.0 μg/ml, 24 h): 5.9 ± 0.4 nmol/24 h/mg protein
Production of TNF-α ([3]; Macrophages, 10 μM lovastatin or 5 mM NaPA 8 h, then LPS 1.0 μg/ml, 24 h): 1.2 ± 0.1 ng/24 h/mg protein

CC(=O)N[C@@H](CS)C(=O)O [NAC, N-acetyl cysteine]
Nitrite ([4]; stimulus LPS + IFN-γ): 8.2 ± 1.4 nmol/mg/24 h
Nitrite ([4]; stimulus LPS + IL-1β): 5.8 ± 1.2 nmol/mg/24 h
Nitrite ([4]; stimulus LPS + TNF-α): 7.1 ± 1.1 nmol/mg/24 h
Nitrite ([4]; stimulus TNF-α + IFN-γ): 8.4 ± 2.1 nmol/mg/24 h
Nitrite ([4]; stimulus TNF-α + IL-1β): 4.2 ± 0.8 nmol/mg/24 h
inhibition at 20000 µM ([4]; stimulus LPS + IFN-γ): 74%
inhibition at 20000 µM ([4]; stimulus LPS + IL-1β): 75%
inhibition at 20000 µM ([4]; stimulus LPS + TNF-α): 79%
inhibition at 20000 µM ([4]; stimulus TNF-α + IFN-γ): 73%
inhibition at 20000 µM ([4]; stimulus TNF-α + IL-1β): 80%
expression of IFN-γ in EAE brain (IFN-γ; daily i.p. treatment from day 1): blocked the induction of IFN-γ
